From US9376499B2, “PAR-1 activation by metalloproteinase-1 (MMP-1)” (Tufts Medical Center, Inc., priority 2009, dated 2016)
Non-standard residues stand in square brackets, D forms with d. Residues, ends and D or L forms follow the SMILES beside them. No end group written: not given here. *: point of attachment. 4Abz = Nc1ccc(C(=O)O)cc1; NHOH = ON*

Columns and labels:
platelets [1] = assay: Collagen-dependent aggregation of gel-filtered human platelets (light transmittance); assay type: cell-based; conditions: 5 μg/ml collagen; 1,10-PA 100 μM, MMP-200 200 nM, FN-439 3 μM, RWJ-56110 1 μM, PAR1 Ab 75 μg/ml, pepducins 3 μM, PPACK 200 μM, hirudin 1 U/ml
Method: Platelet pellets and their supernatants were prepared as follows. […] following established informed consent procedures. […] Alternatively, whole blood was obtained from Hartley Sprague guinea pigs (drawn from the vena cava) into 3% citrate plus 10 U/ml heparin. Washed platelets from the guinea pigs were prepared in PIPES buffer. Platelet aggregation was measured with a Chronolog 560VS/490-2D aggregometer using modified PIPES buffer as a blank. Samples were incubated for 5 min in the presence of inhibitors and 1.8 mM CaCl2 prior to addition of agonist. All reactions were in final volumes of 250 μl at 37° C. while stirring at 900 rpm.
The effect of pharmacologic blockage of metalloproteases or PAR1 on collagen-dependent platelet aggregation was then tested (see FIG. 5). Gel-filtered platelets from healthy individuals (supplemented with 0.3 mg/ml fibrinogen) were challenged with 5 μg/ml collagen in the presence or absence (0.2% DMSO vehicle) of the indicated inhibitors and allowed to stir at 900 rpm in an aggregometer cuvette (250 μL) at 37° C.
In FIG. 5A, platelet aggregation was monitored by light transmittance.

platelets [2] = assay: Platelet thrombus formation on collagen surface under arterial flow, heparin-anticoagulated whole blood; assay type: cell-based, human; conditions: heparin 10 U/mL; shear rate 1,000 s-1; FN-439 3 μM, RWJ-56110 1 μM, pepducins 3 μM, aspirin 1 mM
Method: Following incubation with inhibitors, the blood was perfused over a glass slide coated with fibrillar collagen type I.
A flow chamber (Glycotech) with Type-I fibrillar collagen-coated glass slides was mounted on the stage of an IMT-2 inverted microscope (Olympus) equipped with Retiga 1300 digital camera (QImaging) and 40× objective. One of the flow chamber inlets was connected to a syringe pump (Harvard Apparatus) calibrated to create a shear rate of 1,000^s-1. The whole blood pretreated with the various pharmacologic inhibitors was then perfused over the collagen-coated glass slide. After 2-15 min of perfusion, blood was removed from the flow chamber by gentle displacement with PIPES buffer and images of 8-10 fields were acquired using OpenLab software (Improvision). Acquired images were further analyzed using NIH Image 1.63 software. Images were first sharpened and the edges of separate platelets and platelet aggregates were determined. Following the adjustment of threshold, images were converted into the binary format, and the particle analysis function was activated to highlight the regions covered by platelets with the sensitivity set to one single adherent thrombocyte. For the conversion of pixels into square micrometers, a calibration curve was built using 2.5, 6, 20, 25, and 45 μm polystyrene beads (Polyscience) using acquisition conditions identical to the experimental. The mean area of formed thrombus was determined at 7 min. Area measurements in FIG. 6B represent the mean±s.e. of three separate experiments from five different blood donors.

PAR1 = assay: P1pal-7 ammonium acetate salt: IC50 and PAR1 specificity (test not described); conditions: ammonium acetate salt of P1pal-7 in 100% water
MMP-1 [3] = molecular target: T1, MMP-1 (Cavia porcellus, UniProt H0V812); assay: Collagen zymography of arterial clots from FeCl3-injured carotid arteries; assay type: in vivo, guinea pig
T1 construct: endogenous in cells; host or cells: platelets of Hartley guinea pigs
Method: MMP-1 activity with the dots was determined by collagent zymography (see FIG. 6H). Platelets were isolated from guinea pigs and stimulated with 20 μg/ml collagen for 15 min and platelet supernatants and pellets, or whole resting platelets (control), prepared as described Above. Samples were resolved on a 8% type I collagen/acrylamide zymography gel and collagenase zymogram was developed as described by (Gogly et al., 1998) or immunoblotted with MMP1-Ab, AB806. Arterial dots were also removed from the Fe—Cl irnjured carotid arteries from animals (n=5) treated with FN-439 (FN439 clot) or vehicle (veh dot) as in 6F and 6G and dots were dissolved in lysis buffer and passed 5× through a 21-gauge needle. The lysates were centrifuged and supernatents resolved on the zymography gel. The two lanes on the left side of the western blot have 20 ng of proMMP-1 or 20 ng APMA-activated MMP-1, and the right hand lane in the zymogram has 0.5 μg of APMA-activated human MMP-1.

MMP-1 [4] = molecular target: T2, MMP-1 (Homo sapiens, UniProt P03956); assay: Collagenase (active MMP-1) activity of collagen-stimulated human platelets, DQ collagen I fluorogenic substrate; assay type: biochemical; set-up: endogenous in cells; host or cells: human platelets from healthy donors, stimulated with collagen, ADP or U-46619; conditions: 3 μM FN-439 or 20 μg/ml blocking Ab; platelets treated with 20 μg/ml collagen
T2 sequence (P03956 100-469): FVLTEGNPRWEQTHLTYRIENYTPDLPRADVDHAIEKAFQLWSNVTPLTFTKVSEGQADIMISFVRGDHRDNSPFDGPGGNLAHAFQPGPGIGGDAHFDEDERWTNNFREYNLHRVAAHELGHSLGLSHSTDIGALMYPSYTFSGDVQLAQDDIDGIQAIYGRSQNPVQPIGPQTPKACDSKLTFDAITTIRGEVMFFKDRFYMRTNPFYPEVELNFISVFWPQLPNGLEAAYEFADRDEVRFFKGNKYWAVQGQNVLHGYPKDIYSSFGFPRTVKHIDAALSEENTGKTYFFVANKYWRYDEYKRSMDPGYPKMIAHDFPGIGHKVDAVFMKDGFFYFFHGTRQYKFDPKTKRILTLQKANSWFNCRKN
Method: The enzymatic activity of active MMP-1 in supernatants and platelet lysates was then determined. Human or guinea pig platelets from PRP were concentrated four-fold by centrifugation at 700 g for 25 min at room temperature, and then resuspended in 0.25 volume of PIPES containing 1 mM EDTA (final platelet count was 10^9/mL). Platelets were treated with PBS (buffer), 20 μM ADP, 20 μM U-46619, or 20 μg/ml collagen in the presence of 2.5 mM CaCl2. The platelets were incubated for 15 min at 37° C. with occasional gentle mixing. Platelets were collected by centrifugation at 10,000 g for 5 min at 4° C. and resuspended in lysis buffer (50 mM Tris HCl, 100 mM NaCl, 1 mM NaF, 5 mM EDTA, 0.1% (v/v) Triton X-100, 100 μM PMSF, pH 7.4) and then sheared with a 27 gauge needle.
The enzymatic activity of active MMP-1 in supernatants and platelet lysates was measured using DQ collagen I (Molecular Probes) as fluorogenic substrate and reporter of collagenase activity substrate (Boire et al., 2005) in the presence or absence of 3 μM FN-439, or 20 μg/ml each of control IgG, MMP-1 blocking Ab, MMP-8 blocking Ab or MMP-13 blocking Ab (preincubated for 2 h at 37° C.), as indicated with APMA-activated MMP-1 serving as control (FIG. 1A, striped bars). […]

T1 sequence (H0V812 1-472): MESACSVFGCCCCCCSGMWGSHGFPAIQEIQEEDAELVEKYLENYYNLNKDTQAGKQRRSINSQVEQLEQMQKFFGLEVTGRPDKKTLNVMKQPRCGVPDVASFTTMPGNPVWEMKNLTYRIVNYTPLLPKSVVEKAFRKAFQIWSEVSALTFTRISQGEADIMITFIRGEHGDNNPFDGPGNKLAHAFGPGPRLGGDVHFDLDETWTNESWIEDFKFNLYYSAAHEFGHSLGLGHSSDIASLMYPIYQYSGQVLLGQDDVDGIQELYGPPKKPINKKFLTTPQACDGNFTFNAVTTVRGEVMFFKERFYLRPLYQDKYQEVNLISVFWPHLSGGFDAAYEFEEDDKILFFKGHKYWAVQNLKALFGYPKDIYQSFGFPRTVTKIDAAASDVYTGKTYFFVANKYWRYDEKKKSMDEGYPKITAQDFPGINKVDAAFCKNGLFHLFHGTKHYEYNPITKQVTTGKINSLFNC

Compound	inhibition (loss) of collagen-induced platelet aggregation (platelets [1])	attenuation of growth rate and size of platelet aggregate strings (platelets [2])	specificity for PAR1 (PAR1)	active MMP-1 in arterial thrombi of treated animals (MMP-1 [3])	inhibition of platelet collagenase activity released by collagen (cleavage of fluorogenic collagen substrate) (MMP-1 [4])
P1pal-7: PAR1 i3 loop pepducin lipopeptide, KKSRALF (SEQ ID NO. 2), palmitate (also: palmitate, site not given here)	identical levels of inhibition as blocking MMP-1	~75%	retains specificity for PAR1	–	–
CC(C)C[C@@H](NC(=O)[C@@H]1CCCN1C(=O)CNC(=O)c1ccc(N)cc1)C(=O)N[C@H](C)C(=O)NO [FN-439] (H-[4Abz]GP[dL][dA]-{NHOH})	–	~75%	–	did not contain active MMP-1	completely blocked
